Measured values from patent US9370189B2, “Controlling Pseudomonas aeruginosa persister cells with GM-CSF” (priority 2012, dated 2016).
Where “and” joins values, the source holds several entries; their conditions need not be identical. Identical values can stand only once.

Tests used:
[1] = system: membrane fractions of P. aeruginosa; assay: GM-CSF binding to non-denatured cellular fractions (non-denatured PAGE, Western blotting); design: species or system Pseudomonas aeruginosa; details: P. aeruginosa fractions incubated with GM-CSF, Western blotting (FIG. 22)
Method: Cell fractionation was done as described by George et al. (1986) with some modification. Briefly, cell pellets from stationary phase PAO1 were suspended in 1 ml of PBS buffer (pH7.2) containing 0.2 mg/mL lysozyme, protease inhibitor cocktail (Roche), chilled on ice, and sonicated (20 bursts, 10 s each at 70 W) with a Sonicator Q500 (Qsonica). The unbroken cells and debris were removed by centrifugation at 15,600×g for 5 min at 4° C. The supernatant was transferred to a 1.5 mL centrifuge tube, and the cell membranes were precipitated from the supernatant by centrifugation in a microcentrifuge at 15,600×g for 1 hour at 4° C. The supernatant was saved as cytoplasm fraction. To further separate inner and outer membrane proteins, the membrane pellets were thoroughly suspended in 0.1 ml of PBS buffer supplemented with 1% Sarkosyl by repeated pipetting. Following incubation for 30 minutes with intermittent mixing at room temperature, the suspension was centrifuged at 15,600×g for 1 hour at 4° C. […]
Different cellular components (30 μL) from P. aeruginosa were mixed with GM-CSF (20 ng) and incubated at room temperature for 2 hours. […] The separated samples were then subjected to Western blotting and detected by Human GM-CSF Monoclonal Antibody as described in whole cell binding assay.

P. aeruginosa PAO1 = assay: Effect of GM-CSF on planktonic PAO1 cells (total viable cells and persisters) at exponential phase, alone and with antibiotic, CFU by drop plate; type: cell-based, Pseudomonas aeruginosa; details: for % change in avg. CFU/ml after adding factor + CIP / % change in avg. CFU/ml after adding factor + GEN / % change in avg. CFU/ml after adding factor + TET / % change in avg. CFU/ml after adding factor + TOB / average CFU/mL of persisters reduced by / average CFU/mL of total viable cells reduced by: planktonic PAO1; for % change in avg. CFU/ml after adding factor + CIP: 2.43 pg/mL GM-CSF with 200 μg/mL ciprofloxacin; for % change in avg. CFU/ml after adding factor + GEN: 2.43 pg/mL GM-CSF with 200 μg/mL gentamicin; for % change in avg. CFU/ml after adding factor + TET: 2.43 pg/mL GM-CSF with 200 μg/mL tetracycline; for % change in avg. CFU/ml after adding factor + TOB: 2.43 pg/mL GM-CSF with 200 μg/mL tobramycin; for average CFU/mL of persisters reduced by / average CFU/mL of total viable cells reduced by: reduction
Method: (§1) This Example describes the treatment of planktonic P. aeruginosa PAO1, PDO300 and Escherichia coli K12, with GM-CSF introduced directly or together with an antibiotic to test the synergy. All experiments were conducted with cells harvested from exponential phase subcultures with an optical density at 600 nm (OD600) of 0.3 to 0.4.
(§2) In brief, after preparing an overnight culture of the tested strain in 25 ml LB medium, a subculture was prepared with an OD600 of 0.01 in 50 mL LB medium. The subculture was incubated at 37° C. with shaking at 200 rpm for 3-4 h, till an OD600 of 0.3 to 0.4 was reached. The exponential phase subculture was then divided equally into two centrifuge tubes, each containing 25 mL of the subculture. The subcultures were washed twice with 0.85% NaCl buffer by vortexing and then centrifuging at 4° C., 8000 rpm for 10 min each time. The washed subcultures/cells were resuspended in 25 mL 0.85% NaCl buffer and vortexed gently for 1 min. One of the tubes of subculture was selected for isolation of persisters by adding 200 μg/mL ciprofloxacin (for PAO1 and PDO300 strains) or 100 μg/mL ampicillin (for E. coli K12 strain). After adding the antibiotic for persister isolation, the subculture was incubated at 37° C., shaking at 200 rpm for 3.5 h.
(§3) To test the effects of GM-CSF on viability of persisters, the second tube was used to quantify the total number of viable cells and 1 mL of the washed persister cells was divided into 6 microcentrifuge tubes; 3 were control and the other 3 were GM-CSF treatment samples. In the treatment samples, GM-CSF was added to a concentration of 2.43 pg/mL (or 0.17 pM), the same as found in healthy human bodies. The control samples were supplemented with the same concentration of PBS and BSA as present in 2.43 pg/mL (or 0.17 pM) GM-CSF samples.
(§4) After incubating at 37° C. for 1 h with shaking at 200 rpm, the samples were plated on LB agar plates (15 g/L bacto agar) using drop plate method. The agar plates were then incubated for 24 h at 37° C. to count the total number of persister cells and understand the effect of 0.17 pM GM-CSF on the viability of persister cells.
(§5) To test the synergy with antibiotics, the above samples were then incubated at 37° C. for 3.5 h with shaking at 200 rpm after adding the selected antibiotic. After 3.5 h, the CFU of samples was quantified in the same way to understand if there is any synergy between GM-CSF and antibiotic. Similar treatments were performed on the total population in exponential phase as well. Apart from exponential phase, the synergistic effects of GM-CSF with antibiotics on total viable cells and persisters were also evaluated at stationary phase but PBS buffer (pH=7.4) was used in the experiments instead of 0.85% NaCl solution. Moreover, the 1 h and 3.5 h treatments were performed as co-treatments.

P. aeruginosa PDO300 = assay: Effect of GM-CSF on planktonic PDO300 cells (total viable cells and persisters) at exponential phase, alone and with antibiotic; type: cell-based, Pseudomonas aeruginosa; details: for % change in avg. CFU/mL by GM-CSF (compared to GM-CSF free control) With 50 μg/mL Cip / % change in avg. CFU/mL by GM-CSF (compared to GM-CSF free control) With 50 μg/mL Tet / % change in avg. CFU/mL by GM-CSF (compared to GM-CSF free control) With 50 μg/mL Tob / % change in avg. CFU/mL by GM-CSF (compared to GM-CSF free control) With 200 μg/mL Gen: PDO300 exponential phase, 0.17 pM GM-CSF; for % change in avg. CFU/ml after adding factor + CIP / % change in avg. CFU/ml after adding factor + TET / % change in avg. CFU/ml after adding factor + TOB / % change in avg. CFU/ml after adding factor + GEN / average CFU/ml of persisters reduced by / average CFU/ml of total viable cells reduced by: planktonic PDO300; for % change in avg. CFU/ml after adding factor + CIP: 2.43 pg/mL GM-CSF with 50 μg/mL ciprofloxacin; for % change in avg. CFU/ml after adding factor + TET: 2.43 pg/mL GM-CSF with 50 μg/mL tetracycline; for % change in avg. CFU/ml after adding factor + TOB: 2.43 pg/mL GM-CSF with 50 μg/mL tobramycin; for % change in avg. CFU/ml after adding factor + GEN: 2.43 pg/mL GM-CSF with 200 μg/ml gentamicin; for average CFU/ml of persisters reduced by / average CFU/ml of total viable cells reduced by: reduction
Method: as §1, §2, §3, §4, §5

[2] = 2.43 pg/ml GM-CSF with 200 μg/mL ciprofloxacin
[3] = 2.43 pg/ml GM-CSF with 200 μg/mL gentamicin
[4] = 2.43 pg/ml GM-CSF with 200 μg/mL tetracycline
[5] = 2.43 pg/ml GM-CSF with 200 μg/mL tobramycin
[6] = 2.43 pg/ml GM-CSF in the presence of 50 μg/mL ciprofloxacin
[7] = 2.43 pg/ml GM-CSF in the presence of 50 μg/mL tetracycline
[8] = 2.43 pg/ml GM-CSF in the presence of 50 μg/mL tobramycin
[9] = 2.43 pg/ml GM-CSF in the presence of 200 μg/mL gentamicin

## GM-CSF: granulocyte macrophage-colony stimulating factor, a cytokine secreted by macrophages; recombinant human GM-CSF (R&D systems) in binding tests
[1]
  binding to cellular components: preferentially binds to membrane fractions
P. aeruginosa PAO1; P. aeruginosa persister cells, GM-CSF at 2.43 pg/mL
  persister cells rendered sensitive to the antibiotic ciprofloxacin: more than 97%
P. aeruginosa PAO1; persisters
  % change in avg. CFU/ml after adding factor + CIP: −97.95%
  % change in avg. CFU/ml after adding factor + GEN: −59.31%
  % change in avg. CFU/ml after adding factor + TET: −65.66%
  % change in avg. CFU/ml after adding factor + TOB: −81.42%
P. aeruginosa PAO1; [2]
  average CFU/mL of persisters reduced by: 97.95%
  average CFU/mL of total viable cells reduced by: 15.38%
P. aeruginosa PAO1; [3]
  average CFU/mL of persisters reduced by: 59.31%
  average CFU/mL of total viable cells reduced by: 10.53%
P. aeruginosa PAO1; [4]
  average CFU/mL of persisters reduced by: 65.66%
  average CFU/mL of total viable cells reduced by: 23.06%
P. aeruginosa PAO1; [5]
  average CFU/mL of persisters reduced by: 81.42%
  average CFU/mL of total viable cells reduced by: 34.62%
P. aeruginosa PAO1; total viable cells, planktonic PAO1, exponential phase, 2.43 pg/mL GM-CSF alone, 1 h
  % change in avg. CFU/ml after adding factor: −2.22% and −5.00% and −2.94% and −1.69%
P. aeruginosa PAO1; total viable cells
  % change in avg. CFU/ml after adding factor + CIP: −15.38%
  % change in avg. CFU/ml after adding factor + GEN: −10.53%
  % change in avg. CFU/ml after adding factor + TET: −23.08%
  % change in avg. CFU/ml after adding factor + TOB: −34.62%
P. aeruginosa PDO300; persisters
  % change in avg. CFU/mL by GM-CSF (compared to GM-CSF free control) With 50 μg/mL Cip: −22.2%
  % change in avg. CFU/mL by GM-CSF (compared to GM-CSF free control) With 50 μg/mL Tet: −46.2%
  % change in avg. CFU/mL by GM-CSF (compared to GM-CSF free control) With 50 μg/mL Tob: −80.0%
  % change in avg. CFU/mL by GM-CSF (compared to GM-CSF free control) With 200 μg/mL Gen: −50.0%
  % change in avg. CFU/ml after adding factor + CIP: −27.78%
  % change in avg. CFU/ml after adding factor + TET: −32.69%
  % change in avg. CFU/ml after adding factor + TOB: −75.86%
  % change in avg. CFU/ml after adding factor + GEN: −50.94%
P. aeruginosa PDO300; [6]
  average CFU/ml of persisters reduced by: 27.78%
  average CFU/ml of total viable cells reduced by: 25.00%
P. aeruginosa PDO300; [7]
  average CFU/ml of persisters reduced by: 32.69%
  average CFU/ml of total viable cells reduced by: 12.50%
P. aeruginosa PDO300; [8]
  average CFU/ml of persisters reduced by: 75.86%
  average CFU/ml of total viable cells reduced by: 8.33%
P. aeruginosa PDO300; [9]
  average CFU/ml of persisters reduced by: 50.94%
  average CFU/ml of total viable cells reduced by: 20.00%
P. aeruginosa PDO300; total viable cells
  % change in avg. CFU/mL by GM-CSF (compared to GM-CSF free control) With 50 μg/mL Cip: −25.0%
  % change in avg. CFU/mL by GM-CSF (compared to GM-CSF free control) With 50 μg/mL Tet: −12.5%
  % change in avg. CFU/mL by GM-CSF (compared to GM-CSF free control) With 50 μg/mL Tob: −8.3%
  % change in avg. CFU/mL by GM-CSF (compared to GM-CSF free control) With 200 μg/mL Gen: −20.0%
  % change in avg. CFU/ml after adding factor + CIP: −25.00%
  % change in avg. CFU/ml after adding factor + TET: −12.50%
  % change in avg. CFU/ml after adding factor + TOB: −8.33%
  % change in avg. CFU/ml after adding factor + GEN: −20.00%
